Assay results: patent US9458176B2, “Tetrahydroimidazo(1,5-D)[1,4]oxazepine derivative” (Eisai R&D Management Co., Ltd., priority 2013, dated 2016)

target: human mGluR2 (Homo sapiens (Human), UniProt Q14416); assay: [35S]GTPγS binding assay (Affinity to mGluR2); type: biochemical; details: cell membrane fraction of HEK293 cells stably expressing human mGluR2; glutamic acid 10 μM
Method in brief: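 Membranes from HEK293 cells stably co-expressing human mGluR2 and SLC1A3 (1.8–3 μg protein) preincubated with compound 30 min at RT, then stimulated with 10 μM glutamate 15 min; [35S]GTPγS (0.8 kBq) with WGA-SPA beads 1 h, buffer with 3 μM GDP, 100 mM NaCl, 1 mM MgCl2. IC50 from inhibition of glutamate-specific binding.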

Sequence of human mGluR2 (Q14416 19-872): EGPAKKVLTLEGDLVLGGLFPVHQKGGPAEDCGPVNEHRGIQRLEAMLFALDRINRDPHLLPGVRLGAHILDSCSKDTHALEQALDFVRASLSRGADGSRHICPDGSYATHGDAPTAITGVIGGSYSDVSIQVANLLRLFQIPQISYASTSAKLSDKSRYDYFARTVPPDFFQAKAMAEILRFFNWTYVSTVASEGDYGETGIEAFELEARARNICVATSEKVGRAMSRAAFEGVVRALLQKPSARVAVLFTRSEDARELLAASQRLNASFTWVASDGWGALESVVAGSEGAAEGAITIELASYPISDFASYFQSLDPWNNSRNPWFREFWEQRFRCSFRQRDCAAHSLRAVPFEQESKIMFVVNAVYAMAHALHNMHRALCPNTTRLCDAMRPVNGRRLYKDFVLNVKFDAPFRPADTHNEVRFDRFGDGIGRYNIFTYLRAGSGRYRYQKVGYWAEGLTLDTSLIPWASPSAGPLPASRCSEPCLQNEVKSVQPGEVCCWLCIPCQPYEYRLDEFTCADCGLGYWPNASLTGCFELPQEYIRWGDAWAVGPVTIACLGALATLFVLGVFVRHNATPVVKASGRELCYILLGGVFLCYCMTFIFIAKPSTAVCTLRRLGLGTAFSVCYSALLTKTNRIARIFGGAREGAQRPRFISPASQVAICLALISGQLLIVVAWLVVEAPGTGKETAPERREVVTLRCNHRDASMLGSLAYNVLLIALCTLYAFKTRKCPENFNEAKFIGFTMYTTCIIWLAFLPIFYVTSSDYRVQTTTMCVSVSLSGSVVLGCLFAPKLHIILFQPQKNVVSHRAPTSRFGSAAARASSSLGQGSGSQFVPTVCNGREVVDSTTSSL

SMILES | IC50
Cc1cc(-c2nc(-c3ccc(OC(F)(F)F)c(CF)c3)n3c2CCO[C@H](C)C3)ccn1 [Example 39, (R)-3-(3-(fluoromethyl)-4-(trifluoromethoxy)phenyl)-6-methyl-1-(2-methylpyridin-4-yl)-5,6,8,9-tetrahydroimidazo[1,5-d][1,4]oxazepine] | 0.0025 µM
Cc1cc(-c2nc(-c3ccc(OC(F)(F)F)cc3)n3c2CCO[C@H](CF)C3)ccn1 [Example 70] | 0.0255 µM
Cc1cc(-c2nc(-c3ccc(OC(F)(F)F)cc3)n3c2CCO[C@H](CF)C3)cc(C)n1 [Example 69] | 0.0209 µM
Cc1cc(-c2nc(-c3ccc(F)c(OC(F)(F)F)c3)n3c2CCOCC3)cc(C)n1 [Example 45] | 0.0739 µM
CC[C@@H]1Cn2c(-c3ccc(Cl)c(OC)c3)nc(-c3ccnc(C)c3)c2CCO1 [Example 78] | 0.0038 µM
Cc1cc(-c2nc(-c3ccc(C(F)(F)F)c(Cl)c3)n3c2CCO[C@H](C)C3)cc(C)n1 [Example 129] | 0.0157 µM
Cc1cc(-c2nc(-c3ccc(OC(F)(F)F)c(C#N)c3)n3c2CCOCC3)cc(C)n1 [Example 116] | 0.0338 µM
Cc1cc(-c2nc(-c3ccc(Cl)c(C)c3)n3c2CCO[C@H](CF)C3)ccn1 [Example 74] | 0.0353 µM
COc1cc(-c2nc(-c3cc(C)nc(C)c3)c3n2C[C@@H](CF)OCC3)ccc1OC(F)(F)F [Example 16, (S)-1-(2,6-dimethylpyridin-4-yl)-6-(fluoromethyl)-3-(3-methoxy-4-(trifluoromethoxy)phenyl)-5,6,8,9-tetrahydroimidazo[1,5-d][1,4]oxazepine] | 0.0027 µM
Cc1cc(-c2nc(-c3ccc(Cl)c(C(F)F)c3)n3c2CCOCC3)cc(C)n1 [Example 125] | 0.0165 µM
Cc1cc(-c2nc(-c3ccc(Cl)c(OC(F)(F)F)c3)n3c2CCO[C@H](C)C3)cc(C)n1 [Example 68] | 0.0132 µM
Cc1cc(-c2nc(-c3ccc(F)c(OCCF)c3)n3c2CCO[C@H](C)C3)cc(C)n1 [Example 5, (R)-1-(2,6-dimethylpyridin-4-yl)-3-(4-fluoro-3-(2-fluoroethoxy)phenyl)-6-methyl-5,6,8,9-tetrahydroimidazo[1,5-d][1,4]oxazepine] | 0.0265 µM
COc1cc(-c2nc(-c3cc(C)nc(CF)c3)c3n2C[C@@H](CF)OCC3)ccc1Cl [Example 91] | 0.0161 µM
COc1cc(-c2nc(-c3cc(C)nc(C)c3)c3n2CCOCC3)ccc1C(F)F [Example 121] | 0.0409 µM
COc1cc(-c2nc(-c3ccnc(C)c3)c3n2C[C@@H](CF)OCC3)ccc1Cl [Example 26, (S)-3-(4-chloro-3-methoxyphenyl)-6-fluoromethyl-1-(2-methylpyridin-4-yl)-5,6,8,9-tetrahydroimidazo[1,5-d][1,4]oxazepine] | 0.0135 µM
CCOc1cc(-c2nc(-c3cc(C)nc(C)c3)c3n2C[C@@H](C)OCC3)ccc1C(F)(F)F [Example 82] | 0.0011 µM
COc1cc(-c2nc(-c3cc(C)nc(C)c3)c3n2C[C@@H](C)OCC3)ccc1C [Example 53] | 0.0213 µM
Cc1cc(-c2nc(-c3ccc(Cl)c(C(F)F)c3)n3c2CCOCC3)ccn1 [Example 126] | 0.0084 µM

SMILES | IC50
Cc1cc(-c2nc(-c3ccc(Cl)c(C(F)(F)F)c3)n3c2CCO[C@H](C)C3)cc(C)n1 [Example 140] | 0.0057 µM
COc1cc(-c2nc(-c3cc(C)nc(C)c3)c3n2C[C@@H](C(F)F)OCC3)ccc1Cl [Example 79] | 0.0304 µM
Cc1cc(-c2nc(-c3ccc(OC(F)(F)F)c(Cl)c3)n3c2CCOCC3)cc(C)n1 [Example 112] | 0.0179 µM
Cc1cc(-c2nc(-c3ccc(C(F)(F)F)c(Cl)c3)n3c2CCO[C@H](C)C3)ccn1 [Example 132] | 0.0333 µM
COc1cc(-c2nc(-c3cc(C)nc(C)c3)c3n2C[C@@H](C)OCC3)ccc1C(C)(F)F [Example 23, (R)-3-(4-(1,1-difluoroethyl)-3-methoxyphenyl)-1-(2,6-dimethylpyridin-4-yl)-6-methyl-5,6,8,9-tetrahydroimidazo[1,5-d][1,4]oxazepine] | 0.0194 µM
Cc1cc(-c2nc(-c3ccc(F)c(OCC4CCC4)c3)n3c2CCO[C@H](C)C3)ccn1 [Example 100] | 0.0253 µM
Cc1cc(-c2nc(-c3ccc(Cl)c(OCC(F)(F)F)c3)n3c2CCOCC3)cc(C)n1 [Example 3, 3-(4-chloro-3-(2,2,2-trifluoroethoxy)phenyl)-1-(2,6-dimethylpyridin-4-yl)-5,6,8,9-tetrahydroimidazo[1,5-d][1,4]oxazepine] | 0.0139 µM
Cc1cc(-c2nc(-c3ccc(OC(F)F)c(Cl)c3)n3c2CCO[C@H](C)C3)ccn1 [Example 21, (R)-3-(3-chloro-4-(difluoromethoxy)phenyl)-6-methyl-1-(2-methylpyridin-4-yl)-5,6,8,9-tetrahydroimidazo[1,5-d][1,4]oxazepine] | 0.0075 µM
Cc1cc(-c2nc(-c3ccc(OC(F)(F)F)cc3)n3c2CCO[C@H](C)C3)cc(CF)n1 [Example 86] | 0.0044 µM
COc1cc(-c2nc(-c3cc(C)nc(C)c3)c3n2CCOCC3)ccc1OC(F)F [Example 127] | 0.0121 µM
Cc1cc(-c2nc(-c3ccc(OCc4ccccc4)c(F)c3)n3c2CCOCC3)cc(C)n1 [Example 49] | 0.0114 µM
Cc1cc(-c2nc(-c3ccc(C(F)(F)F)c(C)c3)n3c2CCOCC3)cc(C)n1 [Example 113] | 0.027 µM
COc1cc(-c2nc(-c3cc(C)nc(C(F)F)c3)c3n2C[C@@H](CF)OCC3)ccc1C [Example 81] | 0.0071 µM
Cc1cc(-c2nc(-c3ccc(F)c(OCC4(C)COC4)c3)n3c2CCO[C@H](C)C3)cc(C)n1 [Example 99] | 0.103 µM
Cc1cc(-c2nc(-c3ccc(C(F)(F)F)c(Cl)c3)n3c2CCOCC3)cc(C)n1 [Example 109] | 0.0091 µM
COc1cc(-c2nc(-c3ccnc(C)c3)c3n2C[C@@H](CF)OCC3)ccc1C(F)(F)F [Example 41, (S)-6-(fluoromethyl)-3-(3-methoxy-4-(trifluoromethyl)phenyl)-1-(2-methylpyridin-4-yl)-5,6,8,9-tetrahydroimidazo[1,5-d][1,4]oxazepine] | 0.0041 µM
CC[C@@H]1Cn2c(-c3ccc(Cl)c(OC)c3)nc(-c3cc(C)nc(C)c3)c2CCO1 [Example 77] | 0.0115 µM
COc1cc(-c2nc(-c3ccnc(C)c3)c3n2C[C@@H](CF)OCC3)ccc1C [Example 72] | 0.0294 µM

same assay, conditions: cell membrane fraction of HEK293 cells stably expressing human mGluR2; glutamic acid 10 μM; inhibition of specific [35S]GTPγS binding

SMILES | IC50
Cc1cc(-c2nc(-c3ccc(OC(F)F)c(C)c3)n3c2CCO[C@H](C)C3)cc(CF)n1 [Example 199] | 0.0052 µM
Cc1cc(-c2nc(-c3ccc(OC(F)F)c(CF)c3)n3c2CCO[C@H](C)C3)ccn1 [Example 236] | 0.0029 µM
Cc1cc(-c2nc(-c3ccc(OC(F)(F)F)c(CO)c3)n3c2CCO[C@H](C)C3)ccn1 [Example 230] | 0.0198 µM
Cc1cc(-c2nc(-c3ccc(OCCF)c(Cl)c3)n3c2CCO[C@H](C)C3)cc(C)n1 [Example 239] | 0.0119 µM
Cc1cc(-c2nc(-c3ccc(F)c(C(F)(F)F)c3)n3c2CCO[C@H](C)C3)cc(C)n1 [Example 143] | 0.0136 µM
Cc1cc(-c2nc(-c3ccc(OC(F)(F)F)c(C#N)c3)n3c2CCO[C@H](C)C3)cc(C)n1 [Example 168] | 0.0042 µM
Cc1cc(-c2nc(-c3ccc(Cl)c(OC(F)F)c3)n3c2CCOCC3)cc(C)n1 [Example 212] | 0.0725 µM
COc1cc(-c2nc(-c3cc(C)nc(C(F)F)c3)c3n2C[C@@H](CF)OCC3)ccc1Cl [Example 176] | 0.0388 µM
Cc1cc(-c2nc(-c3ccc(OC4CC4)c(Cl)c3)n3c2CCO[C@H](C)C3)ccn1 [Example 159] | 0.005 µM
CCOc1cc(-c2nc(-c3cc(C)nc(C)c3)c3n2C[C@@H](C)OCC3)ccc1C [Example 225] | 0.0039 µM
COc1cc(-c2nc(-c3cc(C)nc(CF)c3)c3n2C[C@@H](C)OCC3)ccc1C(F)(F)F [Example 200] | 0.0044 µM
CCOc1cc(-c2nc(-c3ccnc(C)c3)c3n2C[C@@H](C)OCC3)ccc1C [Example 223] | 0.0167 µM
Cc1cc(-c2nc(-c3ccc(C)c(OCC4CC4)c3)n3c2CCO[C@H](C)C3)ccn1 [Example 224] | 0.0504 µM
Cc1cc(-c2nc(-c3ccc(OC(F)F)c(Cl)c3)n3c2CCOCC3)cc(C)n1 [Example 215] | 0.0581 µM
Cc1cc(-c2nc(-c3ccc(OC(F)F)c(CO)c3)n3c2CCO[C@H](C)C3)ccn1 [Example 237] | 0.0303 µM
Cc1cc(-c2nc(-c3ccc(OC(F)(F)F)c(C)c3)n3c2CCO[C@H](CF)C3)cc(C)n1 [Example 161] | 0.004 µM
COc1ccc(-c2nc(-c3cc(C)nc(C)c3)c3n2C[C@@H](C)OCC3)cc1OC(F)(F)F [Example 154] | 0.0067 µM
Cc1cc(-c2nc(-c3ccc(OC4CC4)c(Cl)c3)n3c2CCO[C@H](CF)C3)cc(C)n1 [Example 167] | 0.0018 µM
Cc1cc(-c2nc(-c3ccc(OC(F)(F)F)c(C)c3)n3c2CCO[C@H](C)C3)cc(CO)n1 [Example 179] | 0.0179 µM
Cc1cc(-c2nc(-c3ccc(OC(F)F)c(C)c3)n3c2CCO[C@H](C)C3)cc(CO)n1 [Example 177] | 0.0294 µM
Cc1cc(-c2nc(-c3ccc(F)c(Cl)c3)n3c2CCO[C@H](CF)C3)ccn1 [Example 172] | 0.0383 µM
COc1cc(-c2nc(-c3cc(C)nc(C)c3)c3n2C[C@@H](CF)OCC3)ccc1OC(F)F [Example 163] | 0.0158 µM
Cc1cc(-c2nc(-c3ccc(OC(C)C)c(C)c3)n3c2CCO[C@H](CF)C3)cc(C)n1 [Example 244] | 0.0018 µM
CCOc1ccc(-c2nc(-c3cc(C)nc(C)c3)c3n2C[C@@H](C)OCC3)cc1C [Example 241] | 0.0029 µM
Cc1cc(-c2nc(-c3ccc(Cl)c(CF)c3)n3c2CCO[C@H](C)C3)cc(C)n1 [Example 238] | 0.0368 µM
COc1ccc(-c2nc(-c3ccnc(C)c3)c3n2C[C@@H](C)OCC3)cc1OC(F)(F)F [Example 155] | 0.0192 µM
Cc1cc(-c2nc(-c3ccc(OC(F)F)c(Cl)c3)n3c2CCO[C@H](CF)C3)cc(C)n1 [Example 233] | 0.002 µM
